ChEMBL document CHEMBL1201862, “PubChem BioAssay data set” (2004)
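Five concentrations, 48 hours, 96-well plates. GI50 is the concentration that inhibits growth by half.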 Calls of active or inactive are those of the source. No stated cut-off is given here; in the data, active = GI50 up to about 1.1 µM and inactive = higher.

Tests used:
Experiment in all cases: NCI-60 cell line screen, 48 h
T47D = system: T47D
DU-145 = system: DU-145
BT-549 = system: BT-549
Hs-578T = system: Hs-578T

Measured: GI50

S=C1NN=C2C(=C3CCCC4C5CCCCC5N2C34)N1 (centres undefined)
inactive: T47D 24.8 µM | DU-145 > 100 µM | BT-549 > 100 µM | Hs-578T > 100 µM
